Test results as given in patent publication US20240158446A1, “CYCLIC COMPOUND HAVING SELECTIVE INHIBITORY ACTION ON KRAS OVER HRAS AND NRAS” (CHUGAI SEIYAKU KABUSHIKI KAISHA, priority 2021, published 2024).

Key:
[1] = target: GDP-bound NRAS wild-type protein (Homo sapiens, UniProt P01111); assay: Binding to NRAS by surface plasmon resonance (SPR), Single Cycle Kinetics; conditions: SPR KD ratio NRAS/KRAS, class symbols
[2] = target: GDP-bound HRAS wild-type protein (Homo sapiens, UniProt P01112); assay: Binding to HRAS by surface plasmon resonance (SPR), Single Cycle Kinetics; conditions: SPR KD ratio HRAS/KRAS, class symbols
Sequence of GDP-bound HRAS wild-type protein (P01112 whole entry): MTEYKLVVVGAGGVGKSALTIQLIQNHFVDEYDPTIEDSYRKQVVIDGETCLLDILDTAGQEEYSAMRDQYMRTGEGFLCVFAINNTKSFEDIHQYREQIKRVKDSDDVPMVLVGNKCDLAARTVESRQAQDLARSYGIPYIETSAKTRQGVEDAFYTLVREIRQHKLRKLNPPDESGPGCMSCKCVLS

Sequence of GDP-bound NRAS wild-type protein (P01111 whole entry): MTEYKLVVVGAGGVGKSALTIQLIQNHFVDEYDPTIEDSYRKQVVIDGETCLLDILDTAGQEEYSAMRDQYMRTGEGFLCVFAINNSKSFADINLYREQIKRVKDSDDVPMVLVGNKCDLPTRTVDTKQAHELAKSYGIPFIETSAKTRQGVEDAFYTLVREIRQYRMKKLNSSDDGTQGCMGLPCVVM

| SMILES | NRAS/KRAS (ratio of KD value with respect to GDP-bound NRAS wild-type protein to KD value with respect to KRAS) [1] | HRAS/KRAS (ratio of KD value with respect to GDP-bound HRAS wild-type protein to KD value with respect to KRAS) [2] |
| --- | --- | --- |
| CCC[C@H]1C(=O)N[C@@H]([C@@H](C)CC)C(=O)N(C)CC(=O)N(C)[C@H]2C/C=C\CCN(C2=O)[C@@H](Cc2ccc(C(F)(F)F)cc2)C(=O)N(C)CC(=O)N[C@@H](CCc2cc(C)c(C(F)F)c(C)c2)C(=O)N2C[C@H](OCC)C[C@H]2C(=O)NC2(CC(C)(C)C2)C(=O)N(C)[C@@H](C2CCCC2)C(=O)N(C)[C@H](C(=O)N(C)C)CC(=O)N1C [PP2857] | A (a compound having 10 or more and less than 20 is denoted as A) | A (a compound having 10 or more and less than 20 is denoted as A) |
| CCC[C@H]1C(=O)N[C@@H]([C@@H](C)CC)C(=O)N(C)CC(=O)N(C)[C@H]2C/C=C\CCN(C2=O)[C@@H](Cc2ccc(C(F)(F)F)cc2)C(=O)N(C)CC(=O)N[C@@H](CCc2ccc(C3CC3)c(Cl)c2)C(=O)N2C[C@H](OCC)C[C@H]2C(=O)NC2(CC(C)(C)C2)C(=O)N(C)[C@@H](C2CCCC2)C(=O)N(C)[C@H](C(=O)N(C)C)CC(=O)N1C [PP2858] | A (a compound having 10 or more and less than 20 is denoted as A) | B (a compound having 3 or more and less than 10 is denoted as B) |
| CCC[C@H]1C(=O)N[C@@H]([C@@H](C)CC)C(=O)N(C)CC(=O)N(C)[C@H]2C/C=C\CCN(C2=O)[C@@H](Cc2ccc(C(F)(F)F)cc2)C(=O)N(C)CC(=O)N[C@@H](CCc2cc(Cl)c(C(F)(F)F)c(Cl)c2)C(=O)N2C[C@H](OCC)C[C@H]2C(=O)NC2(CC(C)(C)C2)C(=O)N(C)[C@@H](C2CCCC2)C(=O)N(C)[C@H](C(=O)N(C)C)CC(=O)N1C [PP2859] | A (a compound having 10 or more and less than 20 is denoted as A) | A (a compound having 10 or more and less than 20 is denoted as A) |
| CCC[C@H]1C(=O)N[C@@H]([C@@H](C)CC)C(=O)N(C)CC(=O)N(C)[C@H]2C/C=C\CCN(C2=O)[C@@H](Cc2ccc(C(F)(F)F)cc2)C(=O)N(C)CC(=O)N[C@@H](CCc2cc(C)c(C(F)F)c(F)c2)C(=O)N2C[C@H](OCC)C[C@H]2C(=O)NC2(CC(C)(C)C2)C(=O)N(C)[C@@H](C2CCCC2)C(=O)N(C)[C@H](C(=O)N(C)C)CC(=O)N1C [PP2860] | A (a compound having 10 or more and less than 20 is denoted as A) | A (a compound having 10 or more and less than 20 is denoted as A) |
| CCC[C@H]1C(=O)N[C@@H]([C@@H](C)CC)C(=O)N(C)CC(=O)N(C)[C@H]2C/C=C\CCN(C2=O)[C@@H](Cc2ccc(C(F)(F)F)cc2)C(=O)N(C)CC(=O)N[C@@H](CCc2ccc(C(F)(F)F)c(CC)c2)C(=O)N2C[C@H](OCC)C[C@H]2C(=O)NC2(CC(C)(C)C2)C(=O)N(C)[C@@H](C2CCCC2)C(=O)N(C)[C@H](C(=O)N(C)C)CC(=O)N1C [PP2861] | A (a compound having 10 or more and less than 20 is denoted as A) | B (a compound having 3 or more and less than 10 is denoted as B) |
| CCC[C@H]1C(=O)N[C@@H]([C@@H](C)CC)C(=O)N(C)CC(=O)N(C)[C@H]2C/C=C\CCN(C2=O)[C@@H](Cc2ccc(C(F)(F)F)cc2)C(=O)N(C)CC(=O)N[C@@H](CCc2cc(F)c(CC)c(OC)c2)C(=O)N2C[C@H](OCC)C[C@H]2C(=O)NC2(CC(C)(C)C2)C(=O)N(C)[C@@H](C2CCCC2)C(=O)N(C)[C@H](C(=O)N(C)C)CC(=O)N1C [PP2862] | A (a compound having 10 or more and less than 20 is denoted as A) | B (a compound having 3 or more and less than 10 is denoted as B) |
| CCC[C@H]1C(=O)N[C@@H]([C@@H](C)CC)C(=O)N(C)CC(=O)N(C)[C@H]2C/C=C\CCN(C2=O)[C@@H](Cc2ccc(C(F)(F)F)cc2)C(=O)N(C)CC(=O)N[C@@H](CCc2cc(C)c(C3CC3)c(C)c2)C(=O)N2C[C@H](OCC)C[C@H]2C(=O)NC2(CC(C)(C)C2)C(=O)N(C)[C@@H](C2CCCC2)C(=O)N(C)[C@H](C(=O)N(C)C)CC(=O)N1C [PP2863] | A (a compound having 10 or more and less than 20 is denoted as A) | A (a compound having 10 or more and less than 20 is denoted as A) |
| CCC[C@H]1C(=O)N[C@@H]([C@@H](C)CC)C(=O)N(C)CC(=O)N(C)[C@H]2C/C=C\CCN(C2=O)[C@@H](Cc2ccc(C(F)(F)F)cc2)C(=O)N(C)CC(=O)N[C@@H](CCc2cc(F)c(Cl)c(OC)c2)C(=O)N2C[C@H](OCC)C[C@H]2C(=O)NC2(CC(C)(C)C2)C(=O)N(C)[C@@H](C2CCCC2)C(=O)N(C)[C@H](C(=O)N(C)C)CC(=O)N1C [PP2864] | A (a compound having 10 or more and less than 20 is denoted as A) | A (a compound having 10 or more and less than 20 is denoted as A) |
| CCC[C@H]1C(=O)N[C@@H]([C@@H](C)CC)C(=O)N(C)CC(=O)N(C)[C@H]2C/C=C\CCN(C2=O)[C@@H](Cc2ccc(C(F)(F)F)cc2)C(=O)N(C)CC(=O)N[C@@H](CCc2cc(Cl)c(C(F)F)c(Cl)c2)C(=O)N2C[C@H](OCC)C[C@H]2C(=O)NC2(CC(C)(C)C2)C(=O)N(C)[C@@H](C2CCCC2)C(=O)N(C)[C@H](C(=O)N(C)C)CC(=O)N1C [PP2865] | A (a compound having 10 or more and less than 20 is denoted as A) | A (a compound having 10 or more and less than 20 is denoted as A) |
| CCC[C@H]1C(=O)N[C@@H]([C@@H](C)CC)C(=O)N(C)CC(=O)N(C)[C@H]2C/C=C\CCN(C2=O)[C@@H](Cc2ccc(C(F)(F)F)cc2)C(=O)N(C)CC(=O)N[C@@H](CCc2cc(C)c(C(F)F)c(Cl)c2)C(=O)N2C[C@H](OCC)C[C@H]2C(=O)NC2(CC(C)(C)C2)C(=O)N(C)[C@@H](C2CCCC2)C(=O)N(C)[C@H](C(=O)N(C)C)CC(=O)N1C [PP2866] | A (a compound having 10 or more and less than 20 is denoted as A) | A (a compound having 10 or more and less than 20 is denoted as A) |
| CCC[C@H]1C(=O)N[C@@H]([C@@H](C)CC)C(=O)N(C)CC(=O)N(C)[C@H]2C/C=C\CCN(C2=O)[C@@H](Cc2ccc(C(F)(F)F)cc2)C(=O)N(C)CC(=O)N[C@@H](CCc2cc(F)c(C(F)F)c(OC)c2)C(=O)N2C[C@H](OCC)C[C@H]2C(=O)NC2(CC(C)(C)C2)C(=O)N(C)[C@@H](C2CCCC2)C(=O)N(C)[C@H](C(=O)N(C)C)CC(=O)N1C [PP2867] | A (a compound having 10 or more and less than 20 is denoted as A) | A (a compound having 10 or more and less than 20 is denoted as A) |
| CCC[C@H]1C(=O)N[C@@H]([C@@H](C)CC)C(=O)N(C)CC(=O)N(C)[C@H]2C/C=C\CCN(C2=O)[C@@H](Cc2ccc(C(F)(F)F)cc2)C(=O)N(C)CC(=O)N[C@@H](CCc2ccc(C(F)F)c(OC)c2)C(=O)N2C[C@H](OCC)C[C@H]2C(=O)NC2(CC(C)(C)C2)C(=O)N(C)[C@@H](C2CCCC2)C(=O)N(C)[C@H](C(=O)N(C)C)CC(=O)N1C [PP2868] | A (a compound having 10 or more and less than 20 is denoted as A) | A (a compound having 10 or more and less than 20 is denoted as A) |
| CCC[C@H]1C(=O)N[C@@H]([C@@H](C)CC)C(=O)N(C)CC(=O)N(C)[C@H]2C/C=C\CCN(C2=O)[C@@H](Cc2ccc(C(F)(F)F)cc2)C(=O)N(C)CC(=O)N[C@@H](CCc2ccc(CC)c(OC)c2)C(=O)N2C[C@H](OCC)C[C@H]2C(=O)NC2(CC(C)(C)C2)C(=O)N(C)[C@@H](C2CCCC2)C(=O)N(C)[C@H](C(=O)N(C)C)CC(=O)N1C [PP2869] | A (a compound having 10 or more and less than 20 is denoted as A) | A (a compound having 10 or more and less than 20 is denoted as A) |
| CCC[C@H]1C(=O)N[C@@H]([C@@H](C)CC)C(=O)N(C2CC2)CC(=O)N(C)[C@H]2C/C=C\CCN(C2=O)[C@@H](Cc2ccc(C)cc2)C(=O)N(C)CC(=O)N[C@@H](CCc2ccc(C(F)(F)F)c(CC)c2)C(=O)N2C[C@H](OCC)C[C@H]2C(=O)NC2(CC(C)(C)C2)C(=O)N(C)[C@@H](C2CCCC2)C(=O)N(C)[C@H](C(=O)N(C)C)CC(=O)N1C [PP2870] | A (a compound having 10 or more and less than 20 is denoted as A) | A (a compound having 10 or more and less than 20 is denoted as A) |
| CCC[C@H]1C(=O)N[C@@H]([C@@H](C)CC)C(=O)N(C2CC2)CC(=O)N(C)[C@H]2C/C=C\CCN(C2=O)[C@@H](Cc2ccc(C)cc2)C(=O)N(C)CC(=O)N[C@@H](CCc2cc(F)c(Cl)c(OC)c2)C(=O)N2C[C@H](OCC)C[C@H]2C(=O)NC2(CC(C)(C)C2)C(=O)N(C)[C@@H](C2CCCC2)C(=O)N(C)[C@H](C(=O)N(C)C)CC(=O)N1C [PP2871] | A (a compound having 10 or more and less than 20 is denoted as A) | A (a compound having 10 or more and less than 20 is denoted as A) |
